From US20240301001A1, “PEPTIDE-CONTAINING COMPOSITION” (Kyoto University, priority 2021, published 2024)

Key:
[1] = High-fat diet intake after oral administration under overnight fasting; format: in vivo; conditions: male mice raised on high-fat diet (60% kcal fat)
Experimental: (§1) Male mice raised on a high-fat diet (60% kcal fat) were orally administered with the digested product under overnight fasting conditions, and the amount of food intake was measured over time (N=14-15). […] The data were analyzed by two-way analysis of variance, followed by multiple comparisons by Tukey's test. […] The error bars represent standard error (n=14-15).
The data were analyzed by two-way analysis of variance, followed by multiple comparisons by Tukey's test. […] The error bars represent standard error (n=9).
as §1, with “Rubisco-derived peptide YHIEPV” for “the digested product”, “(N=11).” for “(N=14-15).”, “the Bonferroni” for “Tukey's”, “(n=11).” for “(n=14-15).”
The data were analyzed by two-way analysis of variance, followed by multiple comparisons by Tukey's test. […] The error bars represent standard error (n=7-8).
The data were analyzed by two-way analysis of variance, followed by multiple comparisons by Tukey's test. In FIG. 10, the error bars represent standard error (n=5-7).

δ opioid receptor = target: T1, δ opioid receptor (Mus musculus, UniProt P32300); assay: Impact of naltrindole on high-fat diet intake suppression induced by oral YHIEPV; format: in vivo, mice; conditions: YHIEPV oral plus naltrindole intraperitoneal; food intake 4 hours later
T1 construct: from tissue; host or cells: living male mice (whole animal)
T1 sequence (P32300 whole entry): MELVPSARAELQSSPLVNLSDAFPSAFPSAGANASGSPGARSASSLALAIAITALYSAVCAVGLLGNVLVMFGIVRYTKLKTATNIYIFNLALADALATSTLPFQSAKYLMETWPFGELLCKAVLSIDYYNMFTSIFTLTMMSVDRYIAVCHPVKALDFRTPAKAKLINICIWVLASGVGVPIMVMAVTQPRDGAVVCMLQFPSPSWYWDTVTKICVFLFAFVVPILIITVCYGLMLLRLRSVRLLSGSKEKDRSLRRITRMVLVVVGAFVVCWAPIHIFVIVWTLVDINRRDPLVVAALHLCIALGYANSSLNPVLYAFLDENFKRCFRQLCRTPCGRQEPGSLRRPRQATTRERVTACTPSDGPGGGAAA
Experimental: (§2) Male mice raised on a high-fat diet (60% kcal fat) were administered under overnight fasting conditions with YHIEPV (oral administration) and naltrindole (intraperitoneal administration), which is a δ opioid receptor inhibitor, or HS024 (intracerebroventricular administration), which is an MC4 receptor inhibitor, and the amount of food intake was measured 4 hours later (N=13-15). The δ opioid receptor and MC4 receptor are receptors involved in feeding behavior. […] The data were analyzed by one-way analysis of variance, followed by multiple comparisons by Tukey's test. […] The error bars represent standard error (n=13-15).

MC4 receptor = target: T2, MC4 receptor (Mus musculus, UniProt P56450); assay: Impact of HS024 on high-fat diet intake suppression induced by oral YHIEPV; format: in vivo, mice; conditions: YHIEPV oral plus HS024 intracerebroventricular; food intake 4 hours later
T2 construct: from tissue; host or cells: living male mice (whole animal)
T2 sequence (P56450 whole entry): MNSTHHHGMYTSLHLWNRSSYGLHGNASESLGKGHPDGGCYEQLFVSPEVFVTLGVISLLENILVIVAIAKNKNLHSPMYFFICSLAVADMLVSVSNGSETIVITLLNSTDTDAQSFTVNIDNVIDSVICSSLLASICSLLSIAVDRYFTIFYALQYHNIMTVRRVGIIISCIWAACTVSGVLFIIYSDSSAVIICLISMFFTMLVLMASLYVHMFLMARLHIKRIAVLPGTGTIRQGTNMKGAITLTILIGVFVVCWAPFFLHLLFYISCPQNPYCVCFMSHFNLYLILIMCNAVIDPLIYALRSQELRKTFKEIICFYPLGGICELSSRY
Experimental: as §2

[2] = Long-term oral administration: body weight gain caused by high-fat diet; format: in vivo; conditions: 0.3 mg/kg oral once a day, male mice on high-fat diet
Experimental: Male mice raised for at least one month on a high-fat diet (60% kcal fat) were orally administered with YHIEPV (0.3 mg/kg) once a day. The body weight and the amount of food intake were measured daily, and the amount of food intake was calculated as cumulative food intake (N=10). […] The data were analyzed by two-way analysis of variance, followed by multiple comparisons by the Bonferroni test. […] The error bars represent standard error (n=10).

leptin = assay: Serum leptin level by ELISA after five-week oral administration; format: in vivo, mice; conditions: after five-week oral administration 0.3 mg/kg
Experimental: (§3) After the five-week oral administration of YHIEPV in Test Example 4, the blood was collected under anesthesia. Subsequently, the blood was centrifuged, and the serum was collected. The leptin level in the serum was determined by ELISA (according to the manufacturer's protocol) (N=10). The fat mass (peritesticular fat and mesenteric fat) was also measured at the same time as blood sampling (N=9). […] The data were analyzed by t-test. […] The error bars represent standard error (n=9-10).

[3] = Fat mass (peritesticular and mesenteric fat) after five-week oral administration; format: in vivo, mice; conditions: after five-week oral administration 0.3 mg/kg
Experimental: as §3

[4] = system: phosphorylated STAT3 signal; assay: Intracellular leptin sensitivity in hypothalamic organ culture (phosphorylated STAT3 immunostaining); format: cell-based; conditions: peptide 100 μM preincubation 24 hours, leptin 30 nM 1 hour
Experimental: Subsequently, formalin fixation was performed and the phosphorylated STAT3 signal was detected by an immunostaining chemistry method (N=6-7). […] The data were analyzed by one-way analysis of variance, followed by multiple comparisons by Tukey's test. […] The error bars represent standard error (n=6-8).

[5] = system: phosphorylated STAT3 signal; assay: Leptin resistance induced by Forskolin (Rap1 pathway stimulation) in hypothalamic organ culture; format: cell-based; conditions: Forskolin 20 μM and YHIEPV 100 μM 6 hours, leptin 60 nM 1 hour
Experimental: A hypothalamic organ culture system was preincubated with Forskolin (20 μM) and YHIEPV (100 μM) for 6 hours, followed by leptin stimulation (60 nM) for 1 hour. Subsequently, formalin fixation was performed and the phosphorylated STAT3 signal was detected by an immunostaining chemistry method (N=6-7). Forskolin is known to induce leptin resistance via the Rap1 activation pathway. […] The data were analyzed by one-way analysis of variance, followed by multiple comparisons by Tukey's test. […] The error bars represent standard error (n=5-9).

[6] = Anti-obesity effect of intracerebroventricularly administered leptin with oral YHIEPV; format: in vivo, mice; conditions: YHIEPV 0.3 mg/kg oral, leptin 0.5 μg intracerebroventricular
Experimental: A guide cannula was placed in the lateral ventricle of male mice raised on a high-fat diet (60% kcal fat) for at least one month, and a recovery period of at least 1 week was then provided. Subsequently, the body weight change and the amount of food intake were measured after the addition of YHIEPV (0.3 mg/kg, oral administration) and leptin (0.5 μg, intracerebroventricular administration) (N=10-12). […] The data were analyzed by two-way analysis of variance, followed by multiple comparisons by Tukey's test. […] The error bars represent standard error (n=10-12).

IL-6 = assay: Hypothalamic gene expression by RT-qPCR after high-fat diet; format: in vivo, mice; conditions: hypothalamus, 0.3 mg/kg oral for 5 days
Experimental: (§4) Male mice were raised for at least one month on a high-fat diet (60% kcal fat) and were orally administered with YHIEPV (0.3 mg/kg) for 5 days, and hypothalamic and brain samples were then collected. The expression levels of genes associated with leptin resistance (SOCS-3, PTP1B, and TCPTP) and inflammatory cytokines (IL-6, IL1β, TNFα) in the hypothalamus were measured by RT-qPCR. Active Rap1 in the brain was quantified by using the Active Rap1 Pull-down assay kit and the Detection Kit according to the manufacturer's protocol (N=4). […] The data were analyzed by t-test. […] The error bars represent standard error (n=4).

IL1β = assay: as above; format: in vivo, mice; conditions: hypothalamus, 0.3 mg/kg oral for 5 days
Experimental: as §4

PTP1B = assay: as above; format: in vivo, mice; conditions: hypothalamus, 0.3 mg/kg oral for 5 days
Experimental: as §4

SOCS-3 = assay: as above; format: in vivo, mice; conditions: hypothalamus, 0.3 mg/kg oral for 5 days
Experimental: as §4

TCPTP = assay: as above; format: in vivo, mice; conditions: hypothalamus, 0.3 mg/kg oral for 5 days
Experimental: as §4

TNFα = assay: as above; format: in vivo, mice; conditions: hypothalamus, 0.3 mg/kg oral for 5 days
Experimental: as §4

Active Rap1 = Active Rap1 pull-down assay in brain; format: in vivo, mice; conditions: 0.3 mg/kg oral for 5 days
Experimental: as §4

[7] = previously discovered, PTL 2; cited from earlier work

Substance	high-fat diet intake (amount of food intake over time) [1]	effect of suppressing high-fat diet intake in presence of δ opioid receptor inhibitor (δ opioid receptor)	effect of suppressing high-fat diet intake in presence of MC4 receptor inhibitor (MC4 receptor)	body weight gain caused by a high-fat diet [2]	blood leptin level (leptin)	fat mass [3]	intracellular leptin sensitivity in the hypothalamus [4]	leptin resistance induced by Forskolin [5]	anti-obesity effect of intracerebroventricularly administered leptin (body weight change, food intake) [6]	expression level of IL-6 (IL-6)	expression level of IL1β (IL1β)	expression level of PTP1B (PTP1B)	expression level of SOCS-3 (SOCS-3)	expression level of TCPTP (TCPTP)	expression level of TNFα (TNFα)	expression level of active Rap1 (Active Rap1)	anxiolytic effect [7]
YHIEPV (listed as Spinacia oleracea)	suppressed high-fat diet intake	inhibited	inhibited	suppressed body weight gain	decreased	trend toward decrease	enhanced	improved	enhanced	decreasing trend	significantly decreased	decreasing trend	significantly decreased	significantly decreased	decreasing trend	significantly decreased	anxiolytic effect
YKLTY (listed as Spinacia oleracea) [Rubisco-derived peptide, synthesized by solid-phase Fmoc method; contained in green leaf Rubisco digested product B]	suppressed high-fat diet intake	–	–	–	–	–	enhanced	–	–	–	–	–	–	–	–	–	–
